From US11053204B2, “Pyrimidinyloxy benzene derivatives as herbicides” (FMC Corporation, priority 2015, dated 2021)

Assays:
Type in all cases: in vivo
[1] = test system: Italian ryegrass (Lolium multiflorum); experiment: Test A preemergence, visual injury rating
How it was run: (§1)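 Compounds in non-phytotoxic solvent with surfactant applied as soil spray preemergence, or postemergence to plants 2-10 cm at one- to two-leaf stage, in loam/sand. After approximately 10 days in greenhouse, injury rated visually versus untreated controls, 0 (no effect) to 100 (complete control).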

[2] = test system: barnyardgrass (Echinochloa crus-galli); experiment: Test A preemergence, visual injury rating
How it was run: as §1

[3] = test system: giant foxtail (Setaria faberii); experiment: Test A preemergence, visual injury rating
How it was run: as §1

kochia (Kochia scoparia) [4] = experiment: Test A preemergence, visual injury rating
How it was run: as §1

[5] = test system: pigweed (Amaranthus retroflexus); experiment: Test A preemergence, visual injury rating
How it was run: as §1

[6] = test system: ragweed (common ragweed, Ambrosia elatior); experiment: Test A preemergence, visual injury rating
How it was run: as §1

[7] = test system: Italian ryegrass (Lolium multiflorum); experiment: Test A postemergence, visual injury rating; conditions: 0 is no effect, 100 is complete control
How it was run: as §1

[8] = test system: barnyardgrass (Echinochloa crus-galli); experiment: Test A postemergence, visual injury rating; conditions: 0 is no effect, 100 is complete control
How it was run: as §1

[9] = test system: blackgrass (Alopecurus myosuroides); experiment: Test A postemergence, visual injury rating; conditions: 0 is no effect, 100 is complete control
How it was run: as §1

corn (Zea mays) = experiment: Test A postemergence, visual injury rating; conditions: 0 is no effect, 100 is complete control
How it was run: as §1

[10] = test system: galium (catchweed bedstraw, Galium aparine); experiment: Test A postemergence, visual injury rating; conditions: 0 is no effect, 100 is complete control
How it was run: as §1

[11] = test system: giant foxtail (Setaria faberii); experiment: Test A postemergence, visual injury rating; conditions: 0 is no effect, 100 is complete control
How it was run: as §1

kochia (Kochia scoparia) [12] = experiment: Test A postemergence, visual injury rating; conditions: 0 is no effect, 100 is complete control
How it was run: as §1

[13] = test system: pigweed (Amaranthus retroflexus); experiment: Test A postemergence, visual injury rating; conditions: 0 is no effect, 100 is complete control
How it was run: as §1

[14] = test system: ragweed (common ragweed, Ambrosia elatior); experiment: Test A postemergence, visual injury rating; conditions: 0 is no effect, 100 is complete control
How it was run: as §1

[15] = test system: wheat (Triticum aestivum); experiment: Test A postemergence, visual injury rating; conditions: 0 is no effect, 100 is complete control
How it was run: as §1

[16] = test system: barnyardgrass (Echinochloa crus-galli); experiment: Test B flooded paddy test, plant response rating; conditions: 250 g ai/ha; Flood; scale of 0 to 100 where 0 is no effect and 100 is complete control; 13 to 15 days
How it was run: (§2)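 Visual injury ratings against untreated controls, taken 13 to 15 days after compound was added to paddy water standing 3 cm above the soil.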

[17] = test system: ducksalad (Heteranthera limosa); experiment: Test B flooded paddy test, plant response rating; conditions: 250 g ai/ha; Flood; scale of 0 to 100 where 0 is no effect and 100 is complete control; 13 to 15 days
How it was run: as §2

rice (Oryza sativa) [18] = experiment: Test B flooded paddy test, plant response rating; conditions: 250 g ai/ha; Flood; scale of 0 to 100 where 0 is no effect and 100 is complete control; 13 to 15 days
How it was run: as §2

[19] = test system: sedge, umbrella (small-flower umbrella sedge, Cyperus difformis); experiment: Test B flooded paddy test, plant response rating; conditions: 250 g ai/ha; Flood; scale of 0 to 100 where 0 is no effect and 100 is complete control; 13 to 15 days
How it was run: as §2

[20] = test system: barnyardgrass (Echinochloa crus-galli); experiment: Test C flooded paddy test, plant response rating; conditions: flood, scale 0 to 100
Description: (§3) At the same time, plants selected from these crop and weed species and also chickweed (common chickweed, Stellaria media), buckwheat, wild (wild buckwheat, Polygonum convolvulus), wild mustard (Sinapis arvensis), field poppy (Papaver rhoeas), field violet (Viola arvensis), geranium, cutleaf (cutleaf geranium, Geranium dissectum), Canada thistle (Cirsium arvense), and speedwell (bird's-eye speedwell, Veronica persica), were planted in pots containing Sunshine Redi-Earth® planting medium comprising spaghnum peat moss, vermiculite, starter nutrients and dolomitic limestone and treated with postemergence applications of test chemicals formulated in the same manner. Plants ranged in height from 2 to 18 cm (1- to 4-leaf stage) for postemergence treatments. Treated plants and controls were maintained in a greenhouse for 13 to 15 d, after which time all species were compared to controls and visually evaluated. Plant response ratings, summarized in Table C, are based on a scale of 0 to 100 where 0 is no effect and 100 is complete control. A dash (-) response means no test result.
(§4) Plant species in the flooded paddy test consisted of rice (Oryza sativa), sedge, umbrella (small-flower umbrella sedge Cyperus difformis), ducksalad (Heteranthera limosa), and barnyardgrass (Echinochloa crus-galli) grown to the 2-leaf stage for testing. At time of treatment, test pots were flooded to 3 cm above the soil surface, treated by application of test compounds directly to the paddy water, and then maintained at that water depth for the duration of the test.

[21] = test system: ducksalad (Heteranthera limosa); experiment: Test C flooded paddy test, plant response rating; conditions: flood, scale 0 to 100
Description: as §3, §4

rice (Oryza sativa) [22] = experiment: Test C flooded paddy test, plant response rating; conditions: flood, scale 0 to 100
Description: as §3, §4

[23] = test system: sedge, umbrella (small-flower umbrella sedge Cyperus difformis); experiment: Test C flooded paddy test, plant response rating; conditions: flood, scale 0 to 100
Description: as §3, §4

[24] = 31 g ai/ha, 0 to 100 scale, 0 no effect, 100 complete control
[25] = 125 g ai/ha, 0 to 100 scale (0 no effect, 100 complete control)
[26] = 31 g ai/ha, 0 to 100 scale, approximately 10 days

## FC(F)(F)COCc1c(Br)cccc1Oc1ncc(Cl)cn1 [Compound 62]
[1]; [24]
  Plant response rating, Ryegrass, Italian: 0
[1]; [25]
  Ryegrass, Italian plant response rating: 10
[2]; [24]
  Plant response rating, Barnyardgrass: 30
[2]; [25]
  Barnyardgrass plant response rating: 70
[3]; [24]
  Plant response rating, Foxtail, Giant: 30
[3]; [25]
  Foxtail, Giant plant response rating: 100
Kochia (Kochia scoparia) [4]; [24]
  Plant response rating, Kochia: 20
Kochia (Kochia scoparia) [4]; [25]
  Kochia plant response rating: 70
[5]; [24]
  Plant response rating, Pigweed: 60
[5]; [25]
  Pigweed plant response rating: 90
[6]; [24]
  Plant response rating, Ragweed: 0
[6]; [25]
  Ragweed plant response rating: 0
[7]; [26]
  Ryegrass, Italian plant response rating: 0
[7]; 125 g ai/ha
  Ryegrass, Italian plant response rating (0 to 100 scale): 0
[8]; [26]
  Barnyardgrass plant response rating: 20
[8]; 125 g ai/ha
  Barnyardgrass plant response rating (0 to 100 scale): 40
[9]; [26]
  Blackgrass plant response rating: 0
[9]; 125 g ai/ha
  Blackgrass plant response rating (0 to 100 scale): 40
Corn (Zea mays); [26]
  Corn plant response rating: 0
Corn (Zea mays); 125 g ai/ha
  Corn plant response rating (0 to 100 scale): 30
[10]; [26]
  Galium plant response rating: 30
[10]; 125 g ai/ha
  Galium plant response rating (0 to 100 scale): 80
[11]; [26]
  Foxtail, Giant plant response rating: 0
[11]; 125 g ai/ha
  Foxtail, Giant plant response rating (0 to 100 scale): 40
Kochia (Kochia scoparia) [12]; [26]
  Kochia plant response rating: 60
Kochia (Kochia scoparia) [12]; 125 g ai/ha
  Kochia plant response rating (0 to 100 scale): 100
[13]; [26]
  Pigweed plant response rating: 50
[13]; 125 g ai/ha
  Pigweed plant response rating (0 to 100 scale): 90
[14]; [26]
  Ragweed plant response rating: 0
[14]; 125 g ai/ha
  Ragweed plant response rating (0 to 100 scale): 0
[15]; [26]
  Wheat plant response rating: 0
[15]; 125 g ai/ha
  Wheat plant response rating (0 to 100 scale): 0
[16]
  Plant response rating, Barnyardgrass: 40
[17]
  Plant response rating, Ducksalad: 100
Rice (Oryza sativa) [18]
  Plant response rating, Rice: 0
[19]
  Plant response rating, Sedge, Umbrella: 90
[20]; 16 g ai/ha
  Barnyardgrass plant response rating: 0
[20]; 31 g ai/ha
  Barnyardgrass plant response rating: 0
[20]; 62 g ai/ha
  Barnyardgrass plant response rating: 0
[20]; 125 g ai/ha
  Barnyardgrass plant response rating: 20
[21]; 16 g ai/ha
  Ducksalad plant response rating: 0
[21]; 31 g ai/ha
  Ducksalad plant response rating: 0
[21]; 62 g ai/ha
  Ducksalad plant response rating: 40
[21]; 125 g ai/ha
  Ducksalad plant response rating: 75
Rice (Oryza sativa) [22]; 16 g ai/ha
  Rice plant response rating: 0
Rice (Oryza sativa) [22]; 31 g ai/ha
  Rice plant response rating: 0
Rice (Oryza sativa) [22]; 62 g ai/ha
  Rice plant response rating: 0
Rice (Oryza sativa) [22]; 125 g ai/ha
  Rice plant response rating: 10
[23]; 16 g ai/ha
  Sedge, Umbrella plant response rating: 0
[23]; 31 g ai/ha
  Sedge, Umbrella plant response rating: 0
[23]; 62 g ai/ha
  Sedge, Umbrella plant response rating: 60
[23]; 125 g ai/ha
  Sedge, Umbrella plant response rating: 65
